Four compounds from patent publication US8093400B2, “Compounds useful in therapy” (Pfizer Inc., priority 2003, dated 2012) can be followed below.

Each structure is given as a SMILES string.

For this test, the target named is human V1A receptor (Homo sapiens, UniProt P37288). The experiment in a line: V1A filter binding assay ([3H]-AVP binding to CHO-hV1A membranes). The conditions noted are these: screen 1.0, [3H]-AVP binding to CHO-hV1A membranes. The protocol: 1.0 V1A Filter Binding Assay
Sequence of human V1A receptor (P37288 whole entry): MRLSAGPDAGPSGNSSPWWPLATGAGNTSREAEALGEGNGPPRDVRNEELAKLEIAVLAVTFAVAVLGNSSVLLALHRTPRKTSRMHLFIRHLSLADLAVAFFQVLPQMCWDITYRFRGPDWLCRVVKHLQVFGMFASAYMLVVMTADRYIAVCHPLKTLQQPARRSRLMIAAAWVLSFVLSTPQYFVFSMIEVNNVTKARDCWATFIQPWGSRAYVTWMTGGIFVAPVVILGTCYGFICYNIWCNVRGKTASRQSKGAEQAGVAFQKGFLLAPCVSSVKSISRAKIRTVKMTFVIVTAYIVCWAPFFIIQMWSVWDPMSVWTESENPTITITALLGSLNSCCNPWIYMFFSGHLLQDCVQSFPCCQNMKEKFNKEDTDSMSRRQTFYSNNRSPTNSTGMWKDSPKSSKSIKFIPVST
Receptor binding assays were performed on cellular membranes prepared from CHO cells stably expressing the human V1A receptor, (CHO-hV1A). The CHO-hV1A cell line was kindly provided under a licensing agreement by Marc Thibonnier, Dept. of Medicine, Case Western Reserve University School of Medicine, Cleveland, Ohio. CHO-hV1A cells were routinely maintained at 37° C. in humidified atmosphere with 5% CO2 in DMEM/Hams F12 nutrient mix supplemented with 10% fetal bovine serum, 2 mM L-glutamine, 15 mM HEPES and 400 μg/ml G418. For bulk production of cell pellets, adherent CHO-hV1A cells were grown to confluency of 90-100% in 850 cm^2 roller bottles containing a medium of DMEM/Hams F12 Nutrient Mix supplemented with 10% fetal bovine serum, 2 mM L-glutamine and 15 mM HEPES. Confluent CHO-hV1A cells were washed with phosphate-buffered saline (PBS), harvested into ice cold PBS and centrifuged at 1,000 rpm. Cell pellets were stored at −80° C. until use. Cell pellets were thawed on ice and homogenised in membrane preparation buffer consisting of 50 mM Tris-HCl, pH 7.4, 5 mM MgCl2 and supplemented with a protease inhibitor cocktail, (Roche). The cell homogenate was centrifuged at 1000 rpm, 10 min, 4° C. and the supernatant was removed and stored on ice. The remaining pellet was homogenised and centrifuged as before. The supernatants were pooled and centrifuged at 25,000×g for 30 min at 4° C. […] Protein concentration was determined using Bradford reagent and BSA as a standard.
Protein linearity followed by saturation binding studies were performed on each new batch of membrane. […] Saturation binding studies were then performed using various concentrations of [^3H]-arginine vasopressin, [^3H]-AVP (0.05 nM-100 nM) and the Kd and Bmax determined.
Compounds were tested for their effects on [^3H]-AVP binding to CHO-hV1A membranes, (^3H-AVP; specific activity 65.5 Ci/mmol; NEN Life Sciences). […] The plates were sealed and counted on a TopCount Microplate Scintillation Counter (Packard Instruments). Non-specific binding (NSB) was determined using 1 μM unlabelled d(CH2)5Tyr(Me)AVP ([β-mercapto-β,β-cyclopentamethylenepropionyl,0-Me-Tyr^2,Arg^8]-vasopressin) (βMCPVP), (Sigma). The radioligand binding data was analysed using a four parameter logistic equation with the min forced to 0%. […] Specific binding was calculated by subtracting the mean NSB cpm from the mean Total cpm. For test compounds the amount of ligand bound to the receptor was expressed as % bound=(sample cpm−mean NSB cpm)/specific binding cpm×100. […] The inhibitory dissociation constant (Ki) was calculated using the Cheng-Prusoff equation: Ki=IC50/(1+[L]/Kd) where [L] is the concentration of ligand present in the well and Kd is the dissociation constant of the radioligand obtained from Scatchard plot analysis. […]
Regarding `O=C(c1cc(F)cc(F)c1)N1CCC(c2nnc(Cn3nccn3)n2-c2ccc(Cl)cc2)CC1` [Example 165, {4-[4-(4-Chloro-phenyl)-5-[1,2,3]triazol-2-ylmethyl-4H-[1,2,4]triazol-3-yl]-piperidin-1-yl}-(3,5-difluoro-phenyl)-methanone], the Ki (usually a dissociation constant, usually derived from enzyme kinetics or from competition with a known ligand) is 2.98 nM.

Take `O=C(c1ccc(C(F)F)cc1)N1CCC(c2nnc(Cn3nccn3)n2-c2ccc(Cl)cc2)CC1` [Example 206, {4-[4-(4-Chloro-phenyl)-5-[1,2,3]triazol-2-ylmethyl-4H-[1,2,4]triazol-3-yl]-piperidin-1-yl}-(4-difluoromethyl-phenyl)-methanone]: the affinity corresponds to a Ki of 2.43 nM. The Ki values of the last two compounds are within 1.5-fold of each other.

With `O=C(c1cc(Cl)ccc1F)N1CCC(c2nnc(Cn3nccn3)n2-c2ccc(Cl)cc2)CC1` [Example 399, (5-Chloro-2-fluoro-phenyl)-{4-[4-(4-chloro-phenyl)-5-[1,2,3]triazol-2-ylmethyl-4H-[1,2,4]triazol-3-yl]-piperidin-1-yl}-methanone], the inhibitory constant (Ki) is 1.99 nM.

In turn, `O=C(c1n[nH]c2ccccc12)N1CCC(c2nnc(Cn3nccn3)n2-c2ccc(Cl)cc2)CC1` [Example 405, {4-[4-(4-Chloro-phenyl)-5-[1,2,3]triazol-2-ylmethyl-4H-[1,2,4]triazol-3-yl]-piperidin-1-yl}-(1H-indazol-3-yl)-methanone] returned a Ki of 1.11 nM.
